From patent US9476099B2 (TRUSTEES OF DARTMOUTH COLLEGE, priority 2012, dated 2016)
pIC50: −log10 of the molar value. “Also recorded” adds a separate entry of the source.

How the values were obtained:
[1] = test system: RIN1, SOX15 and TLR4 in NT2/D1 cells; experiment: Real-time PCR of gene expression; assay type: cell-based; details: 10 nM, 3 days, FIG. 14
From the text: The graph depicts an average of triplicate sample determinations. Error bars are standard deviation. *=p<0.05; **=p<0.005.
However, methylation changes were less robust in the experiments in NT2/D1 cells. Only 12 genes were identified as having significant decreases in promoter methylation. […] These six genes included RIN1, SOX15, TLR4, GPER, TRIM54, and CD164L2.
(§1) SYBR green-based real-time PCR (Applied Biosystems) was employed using the ddCT method normalized to GAPDH. For western blot analysis cells were lysed in radioimmune precipitation buffer and separated by SDS-PAGE. Antibodies to actin (sc01615, Santa Cruz), 139-H2AX (Cell Signaling), PARP (c-2-10, Biomol International) and p53 (D0-1, Santa Cruz) were used.

NT2/D1-R1 cells [2] = experiment: Apoptosis by PARP cleavage and sub G1 DNA content; assay type: cell-based; details: decitabine 10 nM, three days; NT2/D1-R1
Protocol: Importantly, decitabine-mediated H2AX activation also occurs in the presence of the caspase 3 inhibitor (Z-VAD-FMK) at concentrations that inhibit PARP cleavage.
(§2) Cells were cultured in DMEM media (Gibco) with 10% FBS. Decitabine was added fresh each day. Lentiviral control cells and the stable shRNA DNMT3B knockdown cell line (NT2/D1-R1-sh84) were described previously (Beyrouthy et al. 2009. Cancer Res. 69:9360-9366). DNMT3B knockdown was greater than 90% as confirmed by western blot analysis. Cell proliferation and survival were assessed with the CELL-TITRE GLO assay (Promega). Cell cycle analysis with propidium iodine has been previously described (Kerley-Hamilton et al. 2005. Oncogene 24:6090-6100).
as §1

NT2/D1 cells [3] = experiment: Apoptosis by PARP cleavage and sub G1 DNA content; assay type: cell-based; details: decitabine 10 nM, three days; NT2/D1
Protocol: as §2, §1

[4] = test system: LINE-1 elements in NT2/D1 cells; experiment: LINE-1 element bisulfite pyrosequencing (global DNA methylation); assay type: cell-based; details: low dose decitabine
From the text: Genomic DNA was isolated with the QIAMP DNA mini kit (Qiagen) and bisulfite converted with the EZ DNA methylation kit (Zymo Research). DNA was amplified with HOTSTARTAQ plus DNA polymerase (Qiagen). The LINE-1 pyrosequencing assay averages across four CpG sites and has been described previously (Kashiwagi et al. 2011. Nucleic Acids Res. 39:874-888). Pyrosequencing assays for RIN1, SOX15, and TLR4 were designed with PyroMark assay design software (Qiagen) to sequence across corresponding probes cg0599842, cg02515422 and cg13098960 on the HumanMethylation27 BeadChip.

[5] = test system: NT2/D1 and NT2/D1-R1 cells expressing DNMT3B-targeting shRNAs; experiment: Decitabine dose-response in DNMT3B shRNA knockdown EC cells; assay type: cell-based, human
Protocol: Data are the average of biological triplicates and are representative of at least two experiments. Error bars are S.D.
Viable cell growth and survival were measured. Data was normalized to no drug treatment. Error bars (within symbols) are standard deviation. * p=<0.05 compared to untreated controls.
Five distinct lentiviral shRNAs for DNMT3B (sh84, sh85, sh86, sh87, and sh88) were used to knock down DNMT3B expression. Six potential alternatively spliced isoforms of DNMT3B exist; the most biologically relevant isoforms are variants 1, 2, 3 and 6 (Jones, P. A. and S. B. Baylin. 2007. Cell 128:683-692). […] Western blot analysis of NT2/D1 and NT2/D1-R1 cells was also performed with cells treated with DNMT3B shRNA ([…]) and employing DNMT3B antibody, H-230. The results confirmed the reduced expression of DNMT3B when the shRNA were employed. None of the DNMT3B-specific shRNAs affected levels of DNMT1 or DNMT3A (FIG. 2). […] However, knockdown of DNMT3B by itself had no apparent effect on the growth of NT2/D1 or NT2/D1-R1 cells. […] It had been previously reported that cisplatin causes a global p53-dominant transcriptional response in EC cells (Kerley-Hamilton et al. 2005. Oncogene 24:6090-6100). […]
Cells were cultured in DMEM media (Gibco) with 10% FBS. […] Cell proliferation and survival were assessed with the CELL-TITRE GLO assay (Promega). […]

NT2/D1 cells [6] = experiment: Cell-Titre Glo viable cell growth and survival, 3 day decitabine; assay type: cell-based; details: 72 h, read-out: IC50, growth inhibition
Protocol: (§3) Indicated doses of decitabine were added fresh each day for three days to exponentially growing cultures. Viable cell growth and survival were measured. Data are normalized to no drug treatment. EC cells are NT2/D1, NT2D1/R1, 833K, 833KCP, and Tera-1. Data are the average of 3 experiments in biological duplicate except for MCF-7 cells, which were assayed twice. Error bars are standard deviation (S.D.).
(§4) Cell growth and viability of five EC cell lines (NT2/D1, NT2D1/R1, 833K, 833KCP, and Tera-1) were determined, including two cell lines that are cisplatin-resistant (NT2/D1-R1 and 833KCP). Three control somatic tumor cell lines were also tested (HCT116, MCF7 and U2OS). […] Viable cell growth and survival were measured using Cell-Titre Glo (Promega) assays. […] These higher values are similar to the values shown in FIG. 1 for somatic tumor cell lines (MCF7, U2OS and HCT116).
(§5) NT2/D1, NT2D1-R1, 833K, 833K-CP, Tera-1, U20S, and HCT116 cells were cultured in DMEM with 10% FBS supplemented with glutamine and antibiotics except for MCF7 cells that were cultured in F12-DMEM. The derivation of the NT2/D1-resistant NT2/D1-R1 cell line has been previously described (Curtin et al. 2001. Oncogene 20:2559-2569; Kerley-Hamilton et al. 2007. Biochim. Biophys. Acta 1769:209-219). Cells were treated with the indicated dosages of 5-azadeoxycytidine (5-aza-CdR) for 3 days. This drug was replenished each day. Cisplatin (Bristol Laboratories) treatments were performed at the concentrations and time points indicated. To assess cell proliferation and survival, CELL-TITRE GLO (Promega) assays were performed.
as §2

NT2/D1-R1 cells [7] = experiment: as above; assay type: cell-based; details: 10 nM, FIG. 1
Protocol: as §3, §4, §5, §2

Nc1ncn([C@H]2C[C@H](O)[C@@H](CO)O2)c(=O)n1 [decitabine, 5-aza-deoxycytidine]
expression of RIN1, SOX15 and TLR4 (real-time PCR) [1]: increased expression
apoptotic responses (PARP cleavage, sub G1 DNA content with G2 arrest) (NT2/D1-R1 cells [2]): apoptotic responses; also recorded: induced apoptosis
apoptotic responses (PARP cleavage, sub G1 DNA content with G2 arrest) (NT2/D1 cells [3]): apoptotic responses
global DNA methylation (LINE-1 bisulfite pyrosequencing) [4]: significant reduction in global DNA methylation
effect of DNMT3B knockdown on response to low-dose 3 day decitabine treatment compared to sh-control cells ([5]; NT2/D1-R1 shDNMT3B, FIG. 11): extensive resistance
decitabine sensitivity of cells expressing DNMT3B-targeting shRNAs compared to control cells ([5]; NT2/D1 sh84, NT2/D1-R1 sh84, sh85, sh86, 3 day treatment, FIG. 3): dramatic reduction of decitabine sensitivity
pIC50 (NT2/D1 cells [6]): 7.60 to 8.30
inhibition of proliferation versus control (NT2/D1-R1 cells [7]): 10%
